Common to all, as to assay type: physicochemical
Data set [1] can be described thus: Particle size distribution by laser diffraction (Malvern Mastersizer 3000). As to conditions: for PSD D10 / PSD D50 / PSD D90: micronised API after jet milling. The protocol: Particle size distribution was measured using a Malvern Mastersizer 3000. The sample for analysis (10 mg) was suspended in 0.1% lecithin in isooctane (10 mL) and sonicated to disperse the particles prior to measurement. A single sample was prepared for each measurement.
Two batches were prepared and particle size distribution measured using a Mastersizer 3000 (Table 8).

A short description of data set [2]: Moisture content by Karl Fischer coulometry. Here is the method:
Three assay determinations were made for each assay and the mean value reported. Moisture content was measured by Karl Fischer coulometry using a Metrohm 851 Tritrando coulometer and sample oven. 50 mg of each sample was heated to 80° C. Lactose monohydrate was used as a bracketing standard. Single measurements were made for each sample. The emitted dose was measured using Dosage Unit Sampling Apparatus (DUSA) at 100 L/min. The samples were recovered using 50 mL of diluent. Ten determinations were performed and mean value reported

Data set [3] can be described thus: SEM, XRPD and overall stability assessment of micronised drug substance. The following applies: 1 month 25°C/60% RH and 40°C/75% RH, then four months laboratory conditions. Here is the method:
Scanning electron microscopy and x-ray powder diffraction were performed at the University of Bath.
SEM images were recorded (FIGS. 1 and 2) and the polymorphic stability was assessed by XRPD (FIGS. 3 and 4) and DSC (FIG. 6). The characterization was then repeated after a further four months at laboratory conditions.

[4] abbreviates: +4 months at laboratory conditions.

Regarding `Br.COC(=O)c1ccc2c(c1)NC(=O)/C2=C(\Nc1ccc(N(C)C(=O)CN2CCN(C)CC2)cc1)c1ccccc1` [Batch 2], in data set [1], the “PSD D10” value amounted to 0.60 μm, the “PSD D50” value is listed as 1.51 μm and the “PSD D90” value came out at 2.87 μm.

Consider `Br.COC(=O)c1ccc2c(c1)NC(=O)/C2=C(\Nc1ccc(N(C)C(=O)CN2CCN(C)CC2)cc1)c1ccccc1` [Batch 1], for which, in data set [1], the “PSD D10” value is recorded as 0.04 μm, the “PSD D50” value worked out at 1.03 μm and the “PSD D90” value is 2.66 μm.

In the case of `COC(=O)c1ccc2c(c1)NC(=O)/C2=C(\Nc1ccc(N(C)C(=O)CN2CCN(C)CC2)cc1)c1ccccc1` [Micronised Nintedanib HBr], the “Water Content” value in data set [2] (1 month 25/60) was 5.3%; in data set [2] (1 month 40/75) it was 5.2%; in data set [2] (setting [4]), 4.7%; in data set [2] (T0) it was 5.3%. Further, the D10 in data set [1] (1 month 25/60) is 0.6 mcm; in data set [1] (1 month 40/75), 0.6 mcm; in data set [1] (setting [4]) it was 0.6 mcm; in data set [1] (T0), 0.5 mcm. For the same compound, the D50 in data set [1] (1 month 25/60) is on record as 1.6 mcm; in data set [1] (1 month 40/75), 1.5 mcm; in data set [1] (setting [4]), 1.5 mcm; in data set [1] (T0), 1.5 mcm. In addition, the D90 was 3.0 mcm in data set [1] (1 month 25/60), 2.6 mcm in data set [1] (1 month 40/75), 2.9 mcm in data set [1] (setting [4]) and 2.8 mcm in data set [1] (T0). Also, in data set [3], the “stability of micronised drug substance (PSD, moisture, SEM, XRPD, DSC)” value is given as “did not change during the study”.

Source of the values: patent publication US20250268821A1 (AVALYN PHARMA INC., priority 2022, published 2025).
